US11000065B2, “Aerosol generation and exposure system” (CHARLES R. DREW UNIVERSITY OF MEDICINE AND SCIENCE, priority 2016, dated 2021)

Assay: Electronic cigarette aerosol exposure experiment on mice: plasma concentrations
Details: 9 mice; inhalation of aerosol from one electronic cigarette, 4 seconds per puff, one puff every 20 sec, 10 puffs per episode, one episode every 30 min, 4 episodes in 2 hours

CN1CCCC1c1cccnc1 (stereo not shown) [nicotine]
Mouse plasma nicotine concentration (mean±SD): 35.3 ± 20.0 ng/mL
